{
  "source": "patent US10898436B2",
  "about": "“Nanoparticle compositions for generation of regulatory T cells and treatment of autoimmune diseases and other chronic inflammatory conditions” (Topas Therapeutics GmbH, priority 2011, dated 2021)",
  "key": {"[1]": {"tested_on": "experimental autoimmune encephalomyelitis (EAE) in B10.PL mice", "assay": "Treatment of EAE with autoantigen-loaded nanoparticles (Example 4)", "type": "in vivo", "settings": "injected into B10.PL mice one day after EAE induction by Ac1-9 MBP peptide (FIG. 5)", "procedure": "For covalent conjugation of neuroantigen peptide (encephalitogenic Ac1-9 peptide derived from the amino acid sequence of myelin basic protein), iron oxide-core nanoparticles were synthesized as described in example 3 and adjusted to a concentration of 6 μmol/L in 50 mM SBB-buffer (pH=9). An equal amount of 1-Ethyl-3-(3-dimethylaminopropyl)carbodiimide (c=[…]), dissolved in a 50 mM SBB-buffer (pH=9), was added. After 5 minutes, a 1000-fold excess of the neuroantigen peptide was added and the solution was incubated under rotation for 2h at room temperature and then overnight at 4° C. On the next day, the solution was filtered under centrifugal force in a filter device (100 kDa, 2500 g, 4° C.) and the remnant resuspended in PBS. This procedure was repeated 20 times to remove all excess peptide. The obtained peptide-particle conjugates were dissolved in PBS and subjected to size-exclusion-chromatography to assure for the absence of free peptide. Then, the iron content was measured to determine the concentration of the peptide-particle suspension.\nResults: The thus obtained peptide-loaded nanoparticles or, as control, unconjugated peptide-free nanoparticles were then injected into B10.PL mice (n=6), one day after induction of experimental autoimmune encephalomyelitis (EAE) by immunization to Ac1-9 myelin basic protein peptide (25)."}, "[2]": {"tested_on": "Splenic CD4+Foxp3− T cells from tg4×Foxp3gfp.KI mice", "assay": "Treg conversion by LSEC in vitro with nanoparticle-conjugated or free MBP peptide", "type": "cell-based", "settings": "co-culture with LSEC, TGFβ 2 ng/ml, MBP peptide 5 ng/ml or equivalent dose, four days, flow cytometry (FIG. 11); in % (unit assumed)", "procedure": "FIG. 11: Efficient Treg conversion by LSEC in vitro using nanoparticle-conjugated MBP peptide or free MBP peptide. Splenic CD4+Foxp3− T cells from tg4×Foxp3gfp.KI mice were co-cultured with LSEC in the presence of TGFβ (2 ng/ml) and free MBP peptide (5 ng/ml) or an equivalent dose of MBP peptide coupled to nanoparticles (MBP-NP) for four days. Foxp3 induction in CD4+ T cells was then analyzed by flow cytometry. For statistical analysis, Mann-Whitney test was performed (free MBP: 32.16±1.075; MBP-NP: 29.63±1.558; P=0.2857). n.s.=not significant.\n(§1) To further investigate the cellular tropism of administered peptide-nanoparticle conjugates, conventional as well as intravital confocal fluorescence microscopy of the liver was performed, using nanoparticles with a fluorescent quantum dot core (44). Prior to administration of fluorescent MBP peptide-nanoparticle conjugates, recipient mice were injected with FITC-dextran that is rapidly absorbed by LSEC. […] To confirm that delivered peptide can be presented to T cells, Treg conversion in vitro by LSEC in the presence of free MBP peptide or of MBP peptide bound to nanoparticles (MBP-NP) was studied."}, "[3]": {"assay": "Zeta potential measurement (Malvern Zetasizer Nano-ZS)", "type": "physicochemical", "settings": "20° C.", "procedure": "FIG. 12: Characteristics of NP and MBP-NP. A) The Zeta potentials of NP and MBP-NP were measured at 20° C. using a Malvern Zetasizer Nano-ZS instrument. […] No differences in size could be detected by B) size exclusion chromatography (MBP-NP: left line; NP: right line) or C) by transmission electron microscopy. For electron microscopy, samples were stained with 1% sodium silicotungstate, pH 7, so that the organic shell appears light and the iron oxide core dark."}, "[4]": {"assay": "Organ uptake by dynamic magnetic resonance imaging", "type": "in vivo, mice", "settings": "FIG. 7C", "procedure": "(§2) FIG. 7: Targeted delivery of MBP peptides to LSEC with nanoparticles. A) Plasma clearance rates of MBP peptide coupled to ^59Fe-NP (MBP-^59Fe-NP) and ^14C-MBP peptide coupled to unlabeled NP(^14C-MBP-NP). B) Organ distribution of MBP-^59Fe-NP and ^14C-MBP-NP 60 min after intravenous injection. Mean values±s.e.m. are shown (n=4). C) Representative coronal and transversal MR images of mice pre and post injection of unloaded NP or MBP-NP. D) Intravital confocal microscopy of the liver showing uptake of MBP-NP or unloaded NP by LSEC. Nuclei were also stained. right panel: LSEC (FITC-dextran), left panel: quantum dot-labeled NP; scale bar: 20 μm. E) Electron microscopy of liver, 60 min after intravenous injection of MBP-NP or unloaded NP.\n(§3) To develop a method for selective delivery of autoantigen to LSEC in vivo, the inventors made use of nanoparticles (NP) that are rapidly cleared from the circulation through uptake by liver cells. Specifically, the inventors took advantage of a polymer-coated nanoparticle (43), which they observed to accumulate selectively in liver sinusoidal endothelium (data not shown). […] Low amounts of radioactivity could be detected in spleen and kidney, whereas uptake into other organs was negligible. […]"}, "[5]": {"tested_on": "LSEC", "assay": "Cellular tropism of peptide-nanoparticle conjugates in liver (intravital confocal microscopy, electron microscopy)", "type": "in vivo, mice", "procedure": "as §2, §1"}, "[6]": {"tested_on": "MBP-induced EAE in B10.PL mice", "assay": "Prevention of MBP-induced EAE in B10.PL mice", "type": "in vivo", "settings": "single intravenous injection one day after EAE-induction, B10.PL mice (FIG. 8A)", "procedure": "(§4) FIG. 8: Nanoparticle-based delivery of neuroantigen peptides to LSEC prevents EAE induction. EAE was induced in B10.PL wildtype mice (A, E) or tg4 mice (B) by immunization to MBP. In C57BL/6 wildtype mice (C) or hCD2-ΔkTβRII mice (D), EAE was induced by immunization to MOG. One day after EAE induction, mice were injected once intravenously with PBS (A-E) or neuroantigen peptide-loaded nanoparticles (MBP-NP (A, B, E) or MOG-NP (C, D,). As control, mice received equivalent amounts of unloaded NP (A, C) or unconjugated MBP peptide (B,). E, Twice per week, mice treated with MBP-NP were intraperitoneally injected with Treg-depleting PC61 antibody (MBP-NP/Treg-depleted) or isotype-matched control antibody (MBP-NP). Shown are mean EAE scores±s.e.m. (n=5-7).\n(§5) The proposed immunosuppressive effect of MBP-nanoparticles in vivo was first tested in MBP-induced EAE in B10.PL mice (FIG. 8A). […] To confirm the efficacy of the inventive treatment approach in another independent disease model, the effect of nanoparticles loaded with myelin oligodendrocyte glycoprotein (MOG) peptides on the development of MOG-induced EAE was tested in C57BL/6 mice."}, "[7]": {"tested_on": "EAE in tg4 mice", "assay": "Prevention of MBP-induced EAE in tg4 mice", "type": "in vivo", "settings": "single injection one day after EAE-induction, tg4 mice (FIG. 8B)", "procedure": "as §4, §5"}, "[8]": {"tested_on": "MBP-induced EAE in B10.PL mice", "assay": "MBP-induced EAE in B10.PL mice with Treg depletion by PC61 antibody", "type": "in vivo", "procedure": "as §4\nFIG. 13: Depletion of CD25+Foxp3+CD4+ Treg in vivo by repeated PC61 antibody-administration. B10.PL mice were immunized to MBP peptide and treated on the next day with PBS (n=7) or MBP peptide-coupled nanoparticles (MBP-NP). Mice, which received MBP-NP, were then either treated twice per week with Treg-depleting PC61 antibody (n=5) or non-depleting isotype-matched control antibody (n=6). Mice were sacrificed on day 29 post immunization and spleens were analyzed for Treg depletion efficiency by flow cytometry. Results are depicted as mean % of CD25+Foxp3+of CD4+ T cells±s.e.m. (PBS 17.16±0.3422; MBP-NP+isotype 15.08±0.8594; MBP-NP+PC61 3.160±0.4643; P<0.001). For comparison of multiple groups, one-way ANOVA and Tukey's post test were performed.\nAs the inventors have shown above that tolerance induction by LSEC required TGFβ signaling to T cells, they reasoned that nanoparticle-based targeting of autoantigen peptides to LSEC should be ineffective in mice with TGFβ-insensitive T cells. […] Thus, it can be concluded that also in vivo, the efficacy of nanoparticle-mediated tolerance induction is dependent on TGFβ signaling to T cells. […]"}, "[9]": {"parameters": "species or system mice", "settings": "mouse, in vivo, iv", "procedure": "as §2, §3"}, "[10]": {"tested_on": "CD4+CD25− T cells", "assay": "Generation of Treg cells from CD4+CD25− non-regulatory T cells by antigen presenting cells", "type": "cell-based, mouse", "procedure": "Mouse liver non-parenchymal cells were isolated applying a protocol modified from (28). Briefly, mouse livers were perfused with 0.05% collagenase IV (Sigma; Taufkirchen, Germany) in Gey's balanced salt solution, mechanically dissected and further digested in 0.05% collagenase IV in Gey's balanced salt solution for 25 minutes at 37° C. at constant rotation (240 rpm). Hepatocytes and debris were sedimented twice at 40 g and non-parenchymal cells were recovered by centrifugation over a 17% Optiprep (Sigma) gradient at 400 g.\nLiver sinusoidal endothelial cells (LSEC) were purified from the non-parenchymal cells as described (29) by magnetic sorting with the ME-9F1 antibody (Miltenyi Biotech, Bergisch-Gladbach, Germany). LSEC were seeded on collagen-coated culture plates (Serva, Heidelberg, Germany). After overnight culture in Iscove's modified Dulbecco's medium supplemented with 5% FCS, non-adherent cells were removed by medium change. Accordingly, Kupffer cells were purified from the non-parenchymal cells by magnetic sorting with biotinylated F4/80 antibody (eBioscience, Frankfurt, Germany) and anti-biotin microbeads (Miltenyi).\nAlternatively, hepatocytes were isolated from mouse livers as described (30); and dendritic cells were isolated from mouse spleen by magnetic cell separation for CD11c as described (30).\n10^5 LSEC, 10^5 Kupffer cells, or 5×10^3 hepatocytes were seeded into 96-well plates, and used on the following day for stimulation of CD4+CD25− T cells. Alternatively, 5×10^4 dendritic cells, were seeded into 96-well plates, and used on the same day for stimulation of CD4+CD25− T cells. These CD4+CD25− non-regulatory T cells were isolated from mouse spleens by magnetic cell separation, and 5×10^5 purified lymphocytes per well were then stimulated on the indicated antigen presenting cells in serum-free medium (Pan Biotech, Aidenbach, Germany) with solute antibody to CD3 (BD Bioscience, Heidelberg, Germany). After four days of culture, the T cells were harvested and analysed by flow cytometry for the percentage of CD4+CD25+FOXP3+ Treg cells. […]"}},
  "note": "No end group written: not given here.",
  "data": [
    {"substance": "MBP-NP: Ac1-9 myelin basic protein peptide covalently conjugated by carbodiimide to polymer-coated iron oxide-core nanoparticles (Ac-MGNHSGKRE; also: carbodiimide-conjugated to polymer-coated iron oxide nanoparticles; UniProt P04370 1-9, looked up, fragment)", "values": [
      {"measurement": "protection from clinical EAE", "setting": "[1]", "value": "complete protection from clinical EAE"},
      {"measurement": "Foxp3 induction in CD4+ T cells", "setting": "[2]", "value": "29.63±1.558"},
      {"measurement": "averaged Zeta-potential", "setting": "[3]", "value": "−61.6", "unit": "mV"},
      {"measurement": "organ uptake by dynamic magnetic resonance imaging", "setting": "[4]", "value": "only hepatic targeting"},
      {"measurement": "uptake by LSEC by transmission electron microscopy", "setting": "[5]; 60 min after intravenous injection (FIG. 7E)", "value": "sizeable internalization"},
      {"measurement": "localisation in liver by intravital confocal fluorescence microscopy", "setting": "[5]; quantum dot core, intravenous injection, FITC-dextran stained LSEC (FIG. 7D)", "value": "co-localized with FITC-dextran stained LSEC"},
      {"measurement": "clinical EAE", "setting": "[6]", "value": "lasting and almost complete protection from clinical EAE"},
      {"measurement": "clinical EAE", "setting": "[7]", "value": "protected from disease"},
      {"measurement": "protection from EAE", "setting": "[8]; Treg-depleted mice (repeated PC61 antibody) (FIG. 8E)", "value": "could not prevent the development of disease"},
      {"measurement": "protection from EAE", "setting": "[8]; control mice (isotype-matched control antibody) (FIG. 8E)", "value": "induced protection from EAE"},
      {"measurement": "mean % of CD25+Foxp3+of CD4+ T cells±s.e.m.", "setting": "[8]; spleens, day 29 post immunization, flow cytometry, B10.PL mice (FIG. 13)", "value": "15.08±0.8594", "unit": "%"}
    ]},
    {"substance": "MBP-^59Fe-NP: 59Fe-radiolabeled nanoparticles conjugated to non-labeled MBP peptide (MGNHSGKRE; also: conjugated to 59Fe-labelled nanoparticles; UniProt P04370 1-9, looked up, fragment)", "values": [
      {"measurement": "plasma clearance kinetics of radiolabel", "setting": "[9]", "value": "cleared with similar kinetics"}
    ]},
    {"substance": "TGFβ: exogenous cytokine added to some stimulation cultures", "values": [
      {"measurement": "percentage of CD4+CD25+FOXP3+ Treg cells among stimulated T cells", "setting": "[10]; LSEC-stimulated T cells, in the presence of TGFβ, four days of culture", "value": 38, "unit": "%"},
      {"measurement": "percentage of CD4+CD25+FOXP3+ Treg cells among stimulated T cells", "setting": "[10]; dendritic cell-stimulated T cells, in the presence of exogenous TGFβ, four days of culture", "value": 7.5, "unit": "%"},
      {"measurement": "percentage of CD4+CD25+FOXP3+ Treg cells among stimulated T cells", "setting": "[10]; liver cell-stimulated T cells (LSEC, Kupffer cells and hepatocytes), in the presence of exogenous TGFβ", "value": "at least 20%"}
    ]},
    {"substance": "^14C-MBP-NP: 14C-radiolabeled MBP peptide coupled to unlabeled NP (MGNHSGKRE; also: 14C label, nanoparticle conjugate; UniProt P04370 1-9, looked up, fragment)", "values": [
      {"measurement": "plasma clearance kinetics of radiolabel", "setting": "[9]", "value": "cleared with similar kinetics"}
    ]},
    {"substance": "free MBP peptide: encephalitogenic Ac1-9 peptide derived from the amino acid sequence of myelin basic protein, not coupled (Ac-MGNHSGKRE; UniProt P04370 1-9, looked up, fragment) [reference compound]", "values": [
      {"measurement": "Foxp3 induction in CD4+ T cells", "setting": "[2]", "value": "32.16±1.075"},
      {"measurement": "clinical EAE", "setting": "[7]", "value": "developed severe EAE"}
    ]}
  ]
}
